Results: US20240335465A1 (University of Virginia Patent Foundation, priority 2021, published 2024)

What was measured:
[1] = test system: U2OS-STING cells; test: RIF1 and phospho-53BP1 foci immunofluorescence; type: cell-based, human; details: pretreated with cGAMP, then etoposide or camptothecin
Description: Immunofluorescence Staining: 16,500 adherent cells/cm^2 were plated on a gelatin coated 8-chamber slide (VWR, Catalogue #62407-296) and treated as indicated. Media was removed and cells were washed with 1×PBS with Ca^2+/Mg^2+ and fixed with 4% PFA for 20 minutes. Fixed cells were permeabilized with PBS+0.1% Triton-X and washed 3 times with PBS+0.1% Tween20. After treatment as indicated, non-adherent THP1 cells were collected by centrifugation, washed in cold PBS and fixed in PFA. Post-fixation, they were washed with PBS, spotted on gelatin coated “PTFE” Printed Slides (Electron Microscopy Sciences, Cat #63424-06), and air-dried. For γH2AX staining, permeabilized cells were blocked in Serum-free DAKO Protein Block (Agilent, Catalogue #X0909) for 1 hr at room temperature. Cells were incubated in primary antibody (γH2AX, 1:500; anti-HA, 1:100; Table 1) in DAKO antibody diluent at 4° C. overnight on a rocker platform. U2OS-STING cells undergoing Rad51 staining were first fixed in methanol for 20 minutes in −20° C., blocked for 1 hr with donkey block (2% normal donkey serum, 1% BSA, 0.1% Triton X 100, 0.05% Tween20, 0.05% Sodium Azide in PBS), then finally incubated in an anti-Rad51 antibody overnight at 4° C. (Bio-academia Cat #70-001, 1:6000 in 5% milk in TBST). […]

[2] = test system: PARP; test: PARP activity assay; type: cell-based, human
Description: Post cGAMP treatment, cells were collected by centrifugation and washed with cold PBS once and resuspended in Cell Extraction Buffer. PARP activity was measured using the Chemiluminescent Assay Kit (R&D, Catalog Number: 4685-096-K) following manufacturer's protocol.

[3] = test system: PARylation; test: PolyADP-ribosylation (PARylation) immunoblot; type: cell-based, human
Text: Cells were collected by centrifugation, washed once with ice-cold PBS, lysed in RIPA buffer and analyzed by western blot to detect PARylation using pADPr Antibody (Santa Cruz sc-56198).

[4] = test system: hRPE and U2OS-STING cells; test: EdU incorporation assay; type: cell-based, human; details: 18 hours
Text: EdU incorporated cells were detected by confocal microscopy after Click-iT® EdU labeling following the manufacturer's protocol (Click-iT™ EdU Alexa Fluor™ 594 Imaging Kit, Thermo Fisher Cat #C10339).

[5] = test system: Nematostella vectensis; test: DDR in starlet sea anemones; type: in vivo; details: whole animals; cGAMP in digitonin solution 10 minutes; doxorubicin 2 μM; 16 hours
Text: Starlet sea anemones: Wild type, laboratory maintained, Self-sustaining Nematostella vectensis culture containing of 3-6 months old male and female animals (Putnam et al., 2007) was a kind gift from Timothy J. Jegla (Penn State University Department of Biology). They were maintained in 6-well plates containing water with Instant Ocean® Aquarium Sea Salt (50 gm/l) and fed brine shrimp. […] Permeabilization solution was removed and the animals returned to maintenance sea salt water. Doxorubicin was added to the maintenance sea salt water to a final concentration of 2 μM. 16 hours post treatment. N. vectensis were collected and washed once with cold PBS before the addition of 200 μl RIPA buffer. Samples were homogenized by sonication and centrifuged at 4° C. to remove debris. Soluble lysates were quantified for protein analysis by western blot.

[6] = test system: DDR signaling; test: DDR signaling immunoblotting in THP1 cells
[7] = test system: PARP1, PARP2, Tankyrase; test: PARP1, PARP2, Tankyrase abundance immunoblot; type: cell-based, human

In the case of `Nc1nc2c(ncn2[C@@H]2O[C@@H]3COP(=O)(O)O[C@H]4[C@@H](O)[C@H](n5cnc6c(N)ncnc65)O[C@@H]4COP(=O)(O)O[C@@H]2[C@@H]3O)c(=O)[nH]1` [cGAMP, cyclic guanosine monophosphate-adenosine monophosphate], the “RIF1 and phospho-53BP1 foci formation” value [1] is reported as “augmented the RIF1 and phospho-53BP1 foci formation”, the “PARP enzymatic activity in cell lysates” value ([2]; THP1, cGAMP 6 hours, Rucaparib 10 μM, 6 hr) is reported as “reduction in the PARP enzymatic activity” and the “STING dependence of cGAMP-induced reduction in PARP enzymatic activity” value ([2]; WT and STING−/− THP1) is reported as “dependent on STING”. The “cGAMP-induced suppression of protein PARylation in ATM-inhibited cells” value ([3]; 25 μM KU-55933) was “proceeded normally in ATM-inhibited cells”, the “total cellular level of protein PARylation” value ([3]; WT THP1, H2O2 or doxorubicin) was “substantially reduced total cellular level of protein PARylation” and the “PARP1 PARylation” value ([3]; WT THP1, cGAMP 6 hours, H2O2 10 minutes, anti-PARP1 IP) was “notably reduced”. The “STING requirement for cGAMP-induced suppression of protein PARylation” value ([3]; WT and STING−/− THP1, 250 μM H2O2 10 minutes) was “STING was required”, the EdU-positive cells [4] was “diminished count of hRPE and STING-U2OS EdU-positive cells” and the “TBK1 phosphorylation (pTBK1)” value [5] was “TBK1 phosphorylation”. The γH2AX [5] was “elevated levels of γH2AX”, the “cGAMP-mediated induction of γH2AX and pCHK2” value ([6]; IFNAR1 and STAT2 knockdown THP1 cells) was “failed to impede cGAMP-mediated induction of γH2AX and pCHK2” and the “activation of DDR by cGAMP (H2AX, ATM, CHK2 phosphorylation)” value ([6]; STING−/− THP1 cells, 16 hours) was “abrogated by the deletion of STING”. For the same compound, the “DDR activation (γH2AX, pCHK2)” value ([6]; THP1, LPS 500 ng/ml 6 hours, cGAMP 16 hours) was “activated the DDR”, the “ATR phosphorylation (pATR)” value ([6]; WT THP1) was “inducing ATR phosphorylation” and the “CHK1 activation (pCHK1)” value ([6]; WT THP1) was “neither activation of CHK1”. The “cGAMP-induced DDR signaling” value ([6]; cGAS−/− THP1 cells, 16 hours) was “proceeded normally in cGAS-deficient cells”, the “γH2AX in target THP1 cells incubated with conditioned media from cGAMP treated cells” value ([6]; conditioned media collected after 18 hours, 18 hours on target cells) was “failed to induce γH2AX” and the “cGAMP-induced DDR signaling” value ([6]; shTBK1 knockdown THP1 cells) was “substantially reduced cGAMP-induced DDR signaling”. For the same compound, the “abundance of PARP1” value ([7]; THP1 and HEK293 cells) was “significantly augmented” and the “abundance of PARP1, PARP2, Tankyrase” value ([7]; cGAMP-stimulated cells) was “no decrease in the abundance of PARP1, PARP2, or Tankyrase”.
